# Results taken from US20030055065A1, “Tricyclic amide and urea compounds useful for inhibition of G-protein function and for treatment of proliferative diseases” (priority 1993, published 2003).
# Values joined by “and” are separate entries in the source; they are usually repeats but may differ in a detail not shown here. Equal values may be shown once.
# Target: T1, farnesyl protein transferase (FPT), partially purified from rat brain (Rattus norvegicus, UniProt Q02293+Q04631)
# T1 construct: were partially purified from rat brain by ammonium sulfate fractionation followed by Q-Sepharose
# T1 sequence (Q02293 whole entry, one chain of several): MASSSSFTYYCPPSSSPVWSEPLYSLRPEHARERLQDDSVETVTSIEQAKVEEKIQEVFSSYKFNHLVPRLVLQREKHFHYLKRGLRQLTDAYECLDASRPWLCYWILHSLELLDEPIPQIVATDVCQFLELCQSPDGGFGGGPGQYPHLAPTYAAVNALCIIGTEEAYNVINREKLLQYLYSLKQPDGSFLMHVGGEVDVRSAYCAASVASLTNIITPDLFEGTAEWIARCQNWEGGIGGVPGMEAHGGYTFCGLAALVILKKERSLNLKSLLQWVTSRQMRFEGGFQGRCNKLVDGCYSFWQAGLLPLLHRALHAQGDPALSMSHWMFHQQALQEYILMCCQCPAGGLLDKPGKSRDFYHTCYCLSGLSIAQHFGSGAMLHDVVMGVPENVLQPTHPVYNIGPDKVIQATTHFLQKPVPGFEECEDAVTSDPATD
# Assay: Inhibition of farnesyl protein transferase (transfer of [3H]farnesyl to Ras-CVLS)
# Type: biochemical
# Details: Ras-CVLS farnesylation, partially purified rat brain FPT; read-out: FPT IC50
# Description: 1. In vitro enzyme assays: Inhibition of farnesyl protein transferase and geranylgeranyl protein transferase.
# Human farnesyl protein transferase was also expressed in E. coli, using cDNA clones encoding both the α and β subunits. […] Human farnesyl protein transferase was partially-purified from the soluble protein fraction of E. coli as described above. […] Two forms of val^12-Ha-Ras protein were prepared as substrates for these enzymes, differing in their carboxy terminal sequence. One form terminated in cysteine-valine-leucine-serine (Ras-CVLS) the other in cystein-valine-leucine-leucine (Ras-CVLL). Ras-CVLS is a substrate for the farnesyl protein transferase while Ras-CVLL is a substrate for geranylgeranyl protein transferase I. The cDNAs encoding these proteins were constructed so that the proteins contain an amino-terminal extension of 6 histidine residues. Both proteins were expressed in Escherichia coli and purified using metal chelate affinity chromatography. The radiolabelled isoprenyl pyrophosphate substrates, [^3H]farnesyl pyrophosphate and [3H]geranylgeranyl pyrophosphate, were purchased from DuPont/New England Nuclear.
# The reaction was allowed to proceed for 30 minutes at room temperature and then stopped with 0.5 ml of 4% sodium dodecyl sulfate (SDS) followed by 0.5 ml of cold 30% trichloracetic acid (TCA). Samples were allowed to sit on ice for 45 minutes and precipitated Ras protein was then collected on GF/C filter paper mats using a Brandel cell harvester. […] Percent inhibition was calculated relative to the DMSO vehicle control.
row,IC50 [µM],SMILES
1,5.1,O=C(C1CCCO1)N1CCC(=C2c3ccc(Cl)cc3CCc3cccnc32)CC1 (centres unmarked) [Example 19A]
2,7.3,O=C(c1cnccn1)N1CCC(=C2c3ccc(Cl)cc3CCc3cccnc32)CC1 [Example 27]
3,7.3,O=C(c1ccnc(Cl)c1)N1CCC(=C2c3ccc(Cl)cc3CCc3cccnc32)CC1 [Example 28]
4,8.7,O=C(c1cnc(O)nc1O)N1CCC(=C2c3ccc(Cl)cc3CCc3cccnc32)CC1 [Example 33]
5,11.4,Cc1cc(C(=O)N2CCC(=C3c4ccc(Cl)cc4CCc4cccnc43)CC2)cc(Cl)[n+]1[O-] [Example 37]
6,5.9,O=C(c1ccoc1)N1CCC(=C2c3ccc(Cl)cc3CCc3cccnc32)CC1 [Example 55]
7,7.8,CC(=O)N1CCC(=C2c3ccc(Cl)cc3CCc3cc(Cl)cnc32)CC1 [Example 62]
8,10.6,CC(=O)N1CCC(=C2c3ccc(Cl)cc3CCc3cc(C)cnc32)CC1 [Example 64]
9,17.6,CC(=O)N1CCC(=C2c3cc4ccccc4cc3CCc3cccnc32)CC1 [Example 71A]
10,4,CC(=O)N1CCC(=C2c3ccc(Cl)cc3CCc3cc(Br)c[n+]([O-])c32)CC1 [Example 74B]
11,11.6,CC(=O)N1CCC(=C2c3ccc(Cl)cc3CCc3c(Cl)cc[n+]([O-])c32)CC1 [Example 74C]
12,4.5,O=C(C1CCNCC1)N1CCC(=C2c3ccc(Cl)cc3CCc3cccnc32)CC1 [Example 100]
13,4.6,O=C(Cc1cccs1)N1CCC(=C2c3ccc(Cl)cc3CCc3cccnc32)CC1 [Example 102]
14,4.6,O=C(C1CCSCC1)N1CCC(=C2c3ccc(Cl)cc3CCc3cccnc32)CC1 [Example 103]
15,4.7,O=C(C1CCC(=NO)CC1)N1CCC(=C2c3ccc(Cl)cc3CCc3cccnc32)CC1 (centres unmarked) [Example 104]
16,5,NC1CCC(C(=O)N2CCC(=C3c4ccc(Cl)cc4CCc4cccnc43)CC2)CC1 (centres unmarked) [Example 105]
17,7.2,CNc1ccc(C(=O)N2CCC(=C3c4ccc(Cl)cc4CCc4cccnc43)CC2)cn1 [Example 109]
18,8.3,CN(C)c1cc(C(=O)N2CCC(=C3c4ccc(Cl)cc4CCc4cccnc43)CC2)ccn1 [Example 110]
19,10.3,CC(=O)N(C)CCC(=O)N1CCC(=C2c3ccc(Cl)cc3CCc3cccnc32)CC1 [Example 113]
20,11.1,O=C(c1cccnc1O)N1CCC(=C2c3ccc(Cl)cc3CCc3cccnc32)CC1 [Example 114]
21,14.2,C=CC(=O)N1CCC(=C2c3ccc(Cl)cc3CCc3cccnc32)CC1 [Example 115]
22,15.7,CC(O)C(=O)N1CCC(=C2c3ccc(Cl)cc3CCc3cccnc32)CC1 (centres unmarked) [Example 116]
23,22.3,NCC(=O)N1CCC(=C2c3ccc(Cl)cc3CCc3cccnc32)CC1 [Example 118]

# Continued, compound first:
row,SMILES,IC50 [µM]
1,O=C(Nc1cccnc1)N1CCN([C@@H]2c3ccc(Cl)cc3CCc3cccnc32)CC1 [224 (6.10)],3.2
2,O=C(Cc1ccncc1)N1CCC(=C2c3ccncc3CCc3cc(Cl)ccc32)CC1 [Example 5.39],2.3
3,C#CC(=O)N1CCC(=C2c3ccc(Cl)cc3CCc3cccnc32)CC1 [Example 9],4
4,COC(=O)c1ccc(C(=O)N2CCC(=C3c4ccc(Cl)cc4CCc4cccnc43)CC2)cc1 [Example 13],4.5
5,O=C(c1ccnnc1)N1CCC(=C2c3ccc(Cl)cc3CCc3cccnc32)CC1 [Example 14],4.6
6,O=C(c1cc[nH]c1)N1CCC(=C2c3ccc(Cl)cc3CCc3cccnc32)CC1 [Example 16],4.8
7,CN(C)c1ccc(C(=O)N2CCC(=C3c4ccc(Cl)cc4CCc4cccnc43)CC2)cc1 [Example 17],4.8
8,O=C(c1cn[nH]c1)N1CCC(=C2c3ccc(Cl)cc3CCc3cccnc32)CC1 [Example 18],4.9
9,Cc1ccc2c(O)c(C(=O)N3CCC(=C4c5ccc(Cl)cc5CCc5cccnc54)CC3)cnc2n1 [Example 20],5.2
10,Nc1ccc(C(=O)N2CCC(=C3c4ccc(Cl)cc4CCc4cccnc43)CC2)cc1 [Example 21],5.9
11,COc1cc(C(=O)N2CCC(=C3c4ccc(Cl)cc4CCc4cccnc43)CC2)cc(OC)c1O [Example 24],6.2
12,O=C(c1cc[nH]c(=O)c1)N1CCC(=C2c3ccc(Cl)cc3CCc3cccnc32)CC1 [Example 25],6.25
13,O=C(c1cccnc1)N1CCC(=C2c3ccc(Cl)cc3CCc3cccnc32)CC1 [Example 26],6.3
14,O=C(c1ccccn1)N1CCC(=C2c3ccc(Cl)cc3CCc3cccnc32)CC1 [Example 29],8
15,O=C(c1c[nH]c2ccccc12)N1CCC(=C2c3ccc(Cl)cc3CCc3cccnc32)CC1 [Example 30],5.7
16,O=C(c1cc([N+](=O)[O-])c(O)c([N+](=O)[O-])c1)N1CCC(=C2c3ccc(Cl)cc3CCc3cccnc32)CC1 [Example 31],8.3
17,O=C(c1cncc2ccccc12)N1CCC(=C2c3ccc(Cl)cc3CCc3cccnc32)CC1 [Example 32],8.7
18,O=C(c1cc[n+]([O-])c2ccccc12)N1CCC(=C2c3ccc(Cl)cc3CCc3cccnc32)CC1 [Example 34],9.8

row,SMILES,IC50 [µM]
1,Cn1cc(C(=O)N2CCC(=C3c4ccc(Cl)cc4CCc4cccnc43)CC2)ccc1=O [Example 36],11.2
2,O=C(c1ccnc2ccccc12)N1CCC(=C2c3ccc(Cl)cc3CCc3cccnc32)CC1 [Example 38],12.1
3,O=C1CCC(C(=O)N2CCC(=C3c4ccc(Cl)cc4CCc4cccnc43)CC2)O1 (centres unmarked) [Example 39],13.4
4,O=C(c1ccco1)N1CCC(=C2c3ccc(Cl)cc3CCc3cccnc32)CC1 [Example 52],4.9
5,O=C(c1ccccc1)N1CCC(=C2c3ccc(Cl)cc3CCc3cccnc32)CC1 [Example 54],5.3
6,CCOC(=O)C(=O)N1CCC(=C2c3ccc(Cl)cc3CCc3cccnc32)CC1 [Example 56],7.9
7,CC(C)(C)CC(=O)N1CCC(=C2c3ccc(Cl)cc3CCc3cccnc32)CC1 [Example 57],9.8
8,COCC(=O)N1CCC(=C2c3ccc(Cl)cc3CCc3cccnc32)CC1 [Example 58],14.4
9,CC(=O)N1CCC(=C2c3ccc(Cl)cc3CCc3cccnc32)CC1 [Example 59],26.9
10,CNS(=O)(=O)c1ccc(C(=O)N2CCC(=C3c4ccc(Cl)cc4CCc4cccnc43)CC2)cc1 [Example 92],3.9
11,O=C(/C=C/c1ccncc1)N1CCC(=C2c3ccc(Cl)cc3CCc3cccnc32)CC1 [Example 99],4.4
12,O=C(N[C@@H]1C[C@H]1c1ccccc1)N1CCC(=C2c3ccc(Cl)cc3CCc3cccnc32)CC1 [Example 101],4.6
13,O=C(O)c1ccc(C(=O)N2CCC(=C3c4ccc(Cl)cc4CCc4cccnc43)CC2)cc1 [Example 106],5.3
14,CSc1ccc(C(=O)N2CCC(=C3c4ccc(Cl)cc4CCc4cccnc43)CC2)cc1 [Example 108],6.9
15,O=C(c1ccc(NS(=O)(=O)C(F)(F)F)cc1)N1CCC(=C2c3ccc(Cl)cc3CCc3cccnc32)CC1 [Example 111],8.5
16,CC(C)(C)OC(=O)NCC(=O)N1CCC(=C2c3ccc(Cl)cc3CCc3cccnc32)CC1 [Example 112],8.8
17,O=C(Cc1c(O)cccc1O)N1CCC(=C2c3ccc(Cl)cc3CCc3cccnc32)CC1 [Example 125],10.3

# Same assay, conditions: at 11 μM
row,SMILES,FPT inhibition [% at 11 μM]
1,COc1cc(C(=O)N2CCC(=C3c4ccc(Cl)cc4CCc4cccnc43)CC2)cc(OC)c1OC [Example 119],41

# Same assay, conditions: at 11.8 μM
row,SMILES,FPT inhibition [% at 11.8 μM]
1,O=C(Cc1c[nH]c2ccccc12)N1CCC(=C2c3ccc(Cl)cc3CCc3cccnc32)CC1 [Example 129],32

# Same assay, conditions: at 12.1 μM
row,FPT inhibition [% at 12.1 μM],SMILES
1,7,CC(=O)N1CCC(=C2c3ccc(Cl)cc3CCc3ccc[n+](C)c32)CC1 [Example 130]

# Same assay, conditions: at 12.6 μM
row,SMILES,FPT inhibition [% at 12.6 μM]
1,O=C1CCC(C(=O)N2CCC(=C3c4ccc(Cl)cc4CCc4cccnc43)CC2)N1 (centres unmarked) [Example 123],23

# Same assay, conditions: at 12.8 μM
row,SMILES,FPT inhibition [% at 12.8 μM]
1,Cc1cc(C(=O)N2CCC(=C3c4ccc(Cl)cc4CCc4cccnc43)CC2)cc(Cl)n1 [Example 124],37

# Same assay, conditions: at 13 μM
row,SMILES,FPT inhibition [% at 13 μM]
1,O=C(c1cc2ccccc2[nH]1)N1CCC(=C2c3ccc(Cl)cc3CCc3cccnc32)CC1 [Example 40],44

# Same assay, conditions: at 14.2 μM
row,FPT inhibition [% at 14.2 μM],SMILES
1,25,COc1cc[n+]([O-])c2c1CCc1cc(Cl)ccc1C2=C1CCN(C(C)=O)CC1 [Example 74A]

# Same assay, conditions: at 15.5 μM
row,FPT inhibition [% at 15.5 μM],SMILES
1,38,CC(=O)N1CCC(=C2c3cc(Cl)c(Cl)cc3CCc3cccnc32)CC1 [Example 71C]

# Same assay, conditions: at 15.6 μM
row,FPT inhibition [% at 15.6 μM],SMILES
1,27,CC(=O)N1CCC(=C2c3ccc(Cl)cc3CCc3ccc[n+]([O-])c32)CC1 [Example 73]

# Same assay, conditions: at 16.4 μM
row,FPT inhibition [% at 16.4 μM],SMILES
1,1,CC(=O)N1CCC(=C2c3ccc(Cl)cc3CCc3ccc(C)nc32)CC1 [Example 63]

# Same assay, conditions: at 39 μM
row,SMILES,FPT inhibition [% at 39 μM]
1,Cc1ccc(S(=O)(=O)NC(=O)N2CCC(=C3c4ccc(Cl)cc4CCc4cccnc43)CC2)cc1 [Example 120],4

# Same assay, conditions: at 50 μM
row,FPT inhibition [% at 50 μM],SMILES
1,22,CC(=O)N1CCC(=C2c3ccc(Cl)cc3CCc3cc(C(C)(C)C)cnc32)CC1 [Example 66]

# Same assay, conditions: enzyme inhibition; read-out: FPT IC50
row,IC50,SMILES
1,0.17 µM and 0.14 µM and 0.122 µM and 0.118 µM and 0.178 µM,CN1CCC(CC(=O)N2CCN(C3c4ccc(Cl)cc4CCc4cc(Br)cnc43)CC2)CC1 (centres unmarked) [425-O (5.126)]
